The source of these data is ChEMBL document CHEMBL3297727, “Endiandric acid analogues from Beilschmiedia ferruginea as dual inhibitors of Bcl-xL/Bak and Mcl-1/Bid interactions” (J Nat Prod, 2014).

Data set [1] deals with T1, Induced myeloid leukemia cell differentiation protein Mcl-1 (Homo sapiens, UniProt Q07820). As to the kind of experiment: Displacement of fluorescein-labeled BID from His-tagged MCL-1 (unknown origin) at 100 uM after 1 hr by fluorescence polarization assay relative to control.
T1 sequence (Q07820 whole entry): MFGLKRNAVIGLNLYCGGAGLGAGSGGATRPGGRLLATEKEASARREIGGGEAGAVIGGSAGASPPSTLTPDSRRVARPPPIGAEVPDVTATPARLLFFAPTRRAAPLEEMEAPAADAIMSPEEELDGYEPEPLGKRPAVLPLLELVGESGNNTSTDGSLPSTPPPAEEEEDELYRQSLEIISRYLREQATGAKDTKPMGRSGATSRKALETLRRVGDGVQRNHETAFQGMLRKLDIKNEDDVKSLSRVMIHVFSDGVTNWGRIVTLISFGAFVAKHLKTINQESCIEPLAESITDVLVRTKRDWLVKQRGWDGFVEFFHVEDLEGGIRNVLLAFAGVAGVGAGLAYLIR
Data set [2] concerns K562. As to the kind of experiment: Cytotoxicity against human K562 cells up to 50 uM after 72 hrs by resazurin-based fluorimetric assay. Type of data set: functional, cell-based.
For the next data set, the system named is HCT-116. As to the kind of experiment: Cytotoxicity against human HCT116 cells up to 50 uM after 72 hrs by resazurin-based fluorimetric assay. The data set is classed as functional, cell-based.
Data set [3] has as its target T2, Bcl-2-like protein 1 (Homo sapiens, UniProt Q07817). The experiment in a line: Displacement of fluorescein-labeled BAK from His-tagged BCL-XL (unknown origin) at 100 uM after 1 hr by fluorescence polarization assay relative to control.
Data set [4] addresses T2, Bcl-2-like protein 1. As to the kind of experiment: Displacement of fluorescein-labeled BAK from His-tagged BCL-XL (unknown origin) after 1 hr by fluorescence polarization assay.
Data set [5] is described as follows: Drug degradation in DMSO assessed as autoxidation at 4 degC incubated under dark condition for 6 months. The settings on record: 4383 h. Type of data set: physicochemical.
The nature of data set [6]: Drug degradation assessed as conversion to ferrugineic acid H and ferrugineic acid I under diffuse daylight condition at 25 degC for 1 month. The data set is classed as physicochemical. The settings on record: 730.5 h.
Data set [7] addresses T1, Induced myeloid leukemia cell differentiation protein Mcl-1. As to the kind of experiment: Displacement of fluorescein-labeled BID from His-tagged MCL-1 (unknown origin) after 1 hr by fluorescence polarization assay.
A short description of data set [8]: Drug degradation assessed as conversion to ferrugineic acid H and ferrugineic acid I at 4 degC incubated under dark condition for 3 to 6 months. The data set is classed as physicochemical.
Data set [9] in a line: Drug degradation assessed as conversion to ferrugineic acid F and ferrugineic acid G at 4 degC incubated under dark condition for 3 to 6 months. Type of data set: physicochemical.
Data set [10] in a line: Drug degradation assessed as conversion to ferrugineic acid F and ferrugineic acid G under diffuse daylight condition at 25 degC for 1 month. Type of data set: physicochemical. The settings on record: 730.5 h.
Data set [11] relates to K562. As to the kind of experiment: Cytotoxicity against human K562 cells after 72 hrs by resazurin-based fluorimetric assay. Type of data set: functional, cell-based. The settings on record: K562, 72 h.
Data set [12] can be described thus: Cytotoxicity against human HCT116 cells after 72 hrs by resazurin-based fluorimetric assay. Type of data set: functional, cell-based. As to conditions: HCT-116, 72 h.

The structures appear in SMILES notation. The source made the active and inactive calls. No cut-off for these calls is given here. Bounds are passed on as bounds.

T2 sequence (Q07817 whole entry): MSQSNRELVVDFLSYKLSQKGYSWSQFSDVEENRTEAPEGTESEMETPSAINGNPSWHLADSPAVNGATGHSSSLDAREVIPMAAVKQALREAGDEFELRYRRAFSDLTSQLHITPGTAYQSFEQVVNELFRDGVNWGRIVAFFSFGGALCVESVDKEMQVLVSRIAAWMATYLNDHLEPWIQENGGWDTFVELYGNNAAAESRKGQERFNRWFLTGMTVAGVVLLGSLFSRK

Regarding `O=C(O)C1=C[C@@H](O)[C@@H]2C[C@H]3[C@H](CCCc4ccc(O)cc4)[C@H]4C=C[C@@H]1[C@@H]2[C@H]43` (relative stereo), the inhibition worked out at 0% in [1] and 7% at Bcl-2-like protein 1 [3]. Besides, the result in the data set with K562 [2] and with HCT-116 was inactive.
For the compound `O=C(O)/C=C/[C@H]1[C@H]2C=C[C@H]3[C@@H]1C[C@H]1[C@H](CCCc4ccc(O)cc4)[C@@H]2[C@@H]31` (relative stereo), the figures for the inhibition (in data set [1]; on Bcl-2-like protein 1 [3]) were 0% and 22%, respectively. The outcome with K562 [2] and in the data set with HCT-116 was inactive. Also, the Ki at Bcl-2-like protein 1 [4] is > 100 µM.
As to `O=C(O)[C@@H]1C=C[C@@H]2C[C@H]3[C@H](CC/C=C/Cc4ccc(O)cc4)[C@H]4C=C[C@@H]1[C@@H]2[C@H]43` (relative stereo), the values for the inhibition (in data set [1]; on Bcl-2-like protein 1 [3]) were 14% and 20%, respectively. Moreover, the outcome in the data set on K562 [2] and in the data set with HCT-116 was inactive. In addition, in data set [5], the Stability result is reported as “Stable”.
For `O=C(O)[C@@H]1C=C[C@@H]2C[C@H]3[C@H](CCCCCc4ccc(O)cc4)[C@H]4C=C[C@@H]1[C@@H]2[C@H]43` (relative stereo), the inhibition in data set [1] worked out at 85%; on Bcl-2-like protein 1 [3] it was 60%. Also, the Stability result is given as “Unstable” in data set [6]; “Unstable” in [8]; “Unstable” in data set [9]; “Stable” in [5]; “Unstable” in [10]. Besides, the outcome in the data set with K562 [2] and with HCT-116 was inactive. Moreover, the Ki in [7] amounted to 14 µM; at Bcl-2-like protein 1 [4] it was 19.2 µM.
For the compound `O=C(O)[C@@H]1C=C[C@@H]2C[C@H]3[C@H](CCCCCCCc4ccc(O)cc4)[C@H]4C=C[C@@H]1[C@@H]2[C@H]43` (relative stereo), the inhibition in data set [1] came out at 82%; on Bcl-2-like protein 1 [3] it was 93%. Further, the result in the data set on K562 [2] and in the data set on HCT-116 was inactive. Also, the Ki amounted to 13 µM in data set [7] and 12.6 µM at Bcl-2-like protein 1 [4]. In data set [5], the Stability result was “Stable”.
With `O=C(O)[C@@H]1C=C[C@@H]2C[C@H]3[C@H](CCCc4ccc(O)cc4)[C@H]4C=C[C@@H]1[C@@H]2[C@H]43` (relative stereo), the figures for the inhibition (in [1]; on Bcl-2-like protein 1 [3]) were 0% and 22%, respectively. In addition, the Stability result in [6] was “Unstable”; in [8] it was “Unstable”; in data set [9] it was “Unstable”; in data set [5], “Stable”; in data set [10] it was “Unstable”. Further, the result in the data set with K562 [2] and with HCT-116 was inactive. Further, the Ki on Bcl-2-like protein 1 [4] is > 100 µM.
Take `O=C(O)[C@@H]1C=C[C@@H]2C[C@H]3[C@H](CCCc4ccc(O)c(O)c4)[C@H]4C=C[C@@H]1[C@@H]2[C@H]43` (relative stereo): the inhibition stood at 82% in data set [1] and 39% on Bcl-2-like protein 1 [3]. The outcome with K562 [2] and in the data set on HCT-116 was inactive. The Ki is 5.2 µM in [7] and > 100 µM at Bcl-2-like protein 1 [4]. Also, in [5], the Stability result is given as “Stable”.
In the case of `O=C(O)C1=CC(=O)[C@@H]2C[C@H]3[C@H](CCCc4ccc(O)cc4)[C@H]4C=C[C@@H]1[C@@H]2[C@H]43` (relative stereo), the outcome with K562 [2] and in the data set with HCT-116 was inactive.
As for `CCC1=C[C@@H]2CN(C1)Cc1c([nH]c3ccccc13)[C@@](C(=O)OC)(c1cc3c(cc1OC)N(C)[C@H]1[C@@](O)(C(=O)OC)[C@H](OC(C)=O)[C@]4(CC)C=CCN5CC[C@]31[C@@H]54)C2` [VINORELBINE], the values for the IC50 (in the data set on K562 [11]; in data set [12]) were 0.006 µM and 0.015 µM, respectively.
In the case of `O=C(O)C1=C[C@H](O)[C@@H]2C[C@H]3[C@H](CCCCCc4ccc(O)cc4)[C@H]4C=C[C@@H]1[C@@H]2[C@H]43` (relative stereo), in data set [1], the inhibition turned out to be 3%.
